Laboratory results from patent US5294617A, “Angiotensin II receptor blocking 2,3,6 substituted quinazolinones” (American Cyanamid Company, priority 1993, dated 1994).

Molecular target: T1, Angiotensin II Receptor (Bos taurus, UniProt P25104)
T1 construct: The brownish tissue forming the adrenal cortex is scraped off and finely minced with scissors before homogenization; tissue local slaughter house (Maxwell--Cohen); host or cells: beef adrenal cortex, microsomal membranes (100,000×g pellet)
T1 sequence (P25104 1-359): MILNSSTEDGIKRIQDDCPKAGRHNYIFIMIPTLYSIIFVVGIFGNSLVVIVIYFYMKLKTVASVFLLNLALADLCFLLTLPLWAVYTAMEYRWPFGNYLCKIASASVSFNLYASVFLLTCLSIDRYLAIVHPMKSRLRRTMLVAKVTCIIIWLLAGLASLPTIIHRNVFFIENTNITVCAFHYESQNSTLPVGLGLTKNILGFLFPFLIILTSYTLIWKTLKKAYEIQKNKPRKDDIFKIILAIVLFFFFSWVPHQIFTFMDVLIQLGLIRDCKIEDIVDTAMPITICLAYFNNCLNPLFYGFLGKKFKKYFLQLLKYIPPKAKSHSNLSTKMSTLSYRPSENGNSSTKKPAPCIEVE
Assay: Receptor Binding Assay: binding of [125I](Sar1,Ile8)AngII to beef adrenal cortex membranes
Excerpt: [^125 I](Sar^1,Ile^8)AngII, S.A. 2200 Ci/mmole, is purchased from Dupont (NEN®, Boston, Mass.). All unlabeled AngII analogs, Dimethylsulfoxide (DMSO), nucleotides, bovine serum albumin (BSA) are purchased from Sigma Chemical Co., St. Louis, Mo. U.S.A.
Approximately sixteen (16) to twenty (20) beef adrenal glands are processed as follows: fresh adrenal glands received on crushed ice are cleaned of fatty tissues and the tough membranes encapsulating the glands are removed and discarded. The brownish tissue forming the adrenal cortex is scraped off and finely minced with scissors before homogenization. Care is taken to avoid contamination with medullary tissue during dissection. The scraped cortices are suspended in twenty volumes of an ice-cold buffer medium consisting of 10 mM Tris.HCl (pH 7.4 at 22° C.) and containing 1.0 mM EDTA and 0.2M sucrose. Unless otherwise indicated, all subsequent operations are done at 4° C. […] The homogenate is centrifuged first at low speed (3,000×g) for 10 min. […] This P2 pellet is discarded and the liquid phase is carefully decanted off in clean centrifuge tubes and recentrifuged at high speed (100,000×g) for 60 min. The translucent final pellet is harvested and combined in a small volume (20-50.0 ml) of 50.0 mM Tris.HCl buffer, pH 7.2. […] The pelleted membrane is reconstituted in 50.0 mM Tris.HCl buffer containing 0.1 mM of phenylmethylsulfonyl fluoride (PMSF) to give approximately a protein concentration of 2.5 mg per ml of tissue suspension. The membrane preparation is finally aliquoted in 1.0 ml volumes and stored at -70° C. until use in the binding assays.
In competition studies, experimental compounds are diluted in dimethylsulfoxide (DMSO) and added in 20 ul to wells before the introduction of tissue membranes. […] Assays are performed in triplicate. The wells are left undisturbed for 60 min. at room temperature. […] The filters are removed from the filter grid and counted in a Parkard® Cobra Gamma Counter for 1 min. […] The binding data are analyzed by the non-linear interactive "LUNDON-1" program (LUNDON SOFTWARE Inc., Cleveland, Ohio U.S.A.).

| IC50 | Compound |
| --- | --- |
| 0.043 µM | CCCCc1nc2ccc([C@@H]3C[C@H](CO)ON3C)cc2c(=O)n1Cc1ccc(-c2ccccc2-c2nn[nH]n2)cc1 (relative stereo) [Example 15, CIS-2-butyl-6-5-(hydroxymethyl)-2-methyl-3-isoxazolidinyl]-3-[[2'-(1H-tetrazol-5[1,1'-biphenyl]-4-yl]methyl]-4(3H)-quinazolinone] |
| 0.061 µM | CCCCc1nc2ccc([C@H]3C[C@H](CO)ON3C)cc2c(=O)n1Cc1ccc(-c2ccccc2-c2nnn[nH]2)cc1 (relative stereo) [Example 16, TRANS-2-butyl-6-[5-(hydroxymethyl)-2-methyl-3-isoxazolidinyl]-3-[[2'-(1H-tetrazol-5-yl)[1,1'-biphenyl]-4-yl]methyl]-4(3H)-quinazolinone] |
